Assay results: US12365656B2, “Oxazolidinone compounds and methods of use thereof as antibacterial agents” (priority 2019, dated 2025)
Values after ≈ are worked out from the molar mass of the structure shown. Read-outs that look alike come from different tables or passages of the source.

Legend:
Type in all cases: cell-based
[1] = test system: Mycobacterium tuberculosis (Mtb-GFP; H37Rv pMSP12::GFP); assay: microbe, parasite or virus in culture; conditions: for MIC: Mycobacterium tuberculosis, H37RV, 168 h, pH 6.8, read-out: Mtb Glu MITC95
[2] = test system: mitochondrial protein synthesis in HepG2 cells; assay: Mitochondrial protein synthesis assay; conditions: 4 days, COX-1 relative to SDH-A / Janus Green, In Cell ELISA, read-out: MPS IC50
[3] = test system: Mycobacterium tuberculosis (Mtb-GFP; H37Rv pMSP12::GFP); assay: microbe, parasite or virus in culture; conditions: for MIC: Mycobacterium tuberculosis, H37RV, 168 h, pH 6.8, read-out: Mtb Cho MITC95

Compound | Mtb Glu MITC95 ([1]; glucose carbon source, pH 6.8, 7-day growth, GFP fluorescence, lowest concentration inhibiting 95% of growth) | IC50 [2] | Mtb Cho MITC95 ([3]; cholesterol carbon source, pH 6.8, 7-day growth, GFP fluorescence, lowest concentration inhibiting 95% of growth) | MIC [1] | IC50 ([2]; Homo sapiens, 96 h) | MIC [3]
4-{2,6-difluoro-4-[(5R)-5-(hydroxymethyl)-2-oxo-1,3-oxazolidin-3-yl]phenyl}-4-hydroxy-1λ^6-thiane-1,1-dione [Example 34] | 25 µM | > 100 µM | 25 µM |  |  | 
CS(=O)(=O)c1ccc(-c2ccc(N3C[C@H](CO)OC3=O)cc2F)cc1 [Example 1, (5R)-3-[2-fluoro-4′-(methylsulfonyl)biphenyl-4-yl]-5-(hydroxymethyl)-1,3-oxazolidin-2-one] |  |  |  | 1 µM (≈ 0.365 µg/mL) | 7 µM | 1.2 µM (≈ 0.438 µg/mL)
O=C1O[C@@H](CO)CN1c1cc(F)c(C2(F)CCS(=O)(=O)CC2)c(F)c1 [Example 2, (5R)-3-[3,5-difluoro-4-(4-fluoro-1,1-dioxidotetrahydro-2H-thiopyran-4-yl)phenyl]-5-(hydroxymethyl)-1,3-oxazolidin-2-one] |  |  |  | 1.9 µM (≈ 0.721 µg/mL) | > 100 µM | 2.2 µM (≈ 0.835 µg/mL)
CSc1ccc(-c2ccc(N3C[C@H](CO)OC3=O)cc2F)cc1 [Example 4, (5R)-3-[2-fluoro-4′-(methylsulfanyl)[1,1′-biphenyl]-4-yl]-5-(hydroxymethyl)-1,3-oxazolidin-2-one] |  |  |  | 0.21 µM (≈ 0.07 µg/mL) | > 100 µM | 0.24 µM (≈ 0.08 µg/mL)
O=C1O[C@@H](CO)CN1c1ccc(-c2ccn3ncnc3c2)c(F)c1 [Example 8, (5R)-3-[3-fluoro-4-([1,2,4]triazolo[1,5-a]pyridin-7-yl)phenyl]-5-(hydroxymethyl)-1,3-oxazolidin-2-one] |  |  |  | 1.5 µM (≈ 0.492 µg/mL) | 3.7 µM | 1.8 µM (≈ 0.591 µg/mL)
O=C1O[C@@H](CO)CN1c1ccc(-c2ccc(OCCO)cc2)c(F)c1 [Example 12, (5R)-3-[2-fluoro-4'-(2-hydroxyethoxy)[1,1′-biphenyl]-4-yl]-5-(hydroxymethyl)-1,3-oxazolidin-2-one] |  |  |  | 0.78 µM (≈ 0.271 µg/mL) | 19 µM | 0.39 µM (≈ 0.135 µg/mL)
CN1CC(C)(S(=O)(=O)c2ccc(-c3ccc(N4C[C@H](CO)OC4=O)cc3F)cc2)C1 [Example 14, (5R)-3-[4'-(1,3-dimethylazetidine-3-sulfonyl)-2-fluoro[1,1′-biphenyl]-4-yl]-5-(hydroxymethyl)-1,3-oxazolidin-2-one] |  |  |  | 0.78 µM (≈ 0.339 µg/mL) | 23 µM | 0.78 µM (≈ 0.339 µg/mL)
O=C1O[C@@H](CO)CN1c1cc(F)c(C2=CCS(=O)(=O)CC2)c(F)c1 [Example 15, 4-{2,6-difluoro-4-[(5R)-5-(hydroxymethyl)-2-oxo-1,3-oxazolidin-3-yl]phenyl}-3,6-dihydro-1λ6-thiopyran-1,1(2H)-dione] |  |  |  | 1.6 µM (≈ 0.575 µg/mL) | > 100 µM | 1.6 µM (≈ 0.575 µg/mL)
N#CC1(c2c(F)cc(N3C[C@H](CO)OC3=O)cc2F)CCS(=O)(=O)CC1 [Example 16, 4-{2,6-difluoro-4-[(5R)-5-(hydroxymethyl)-2-oxo-1,3-oxazolidin-3-yl]phenyl}-1,1-dioxo-1λ6-thiane-4-carbonitrile] |  |  |  | 1.6 µM (≈ 0.618 µg/mL) | 50 µM | 1.6 µM (≈ 0.618 µg/mL)
O=C1O[C@@H](CO)CN1c1cc(F)c(N2CC3CS(=O)(=O)CC3C2)c(F)c1 (stereo partly drawn) [Example 17, 5-{2,6-difluoro-4-[(5R)-5-(hydroxymethyl)-2-oxo-1,3-oxazolidin-3-yl]phenyl}hexahydro-2λ6-thieno[3,4-c]pyrrole-2,2(1H)-dione] |  |  |  | 2.3 µM (≈ 0.893 µg/mL) | > 100 µM | 3.1 µM (≈ 1.2 µg/mL)
CC(=O)N1CCN(c2c(F)cc(N3C[C@H](CO)OC3=O)cc2F)C2CC21 (stereo partly drawn) [Example 18, (5R)-3-[4-(5-acetyl-2,5-diazabicyclo[4.1.0]heptan-2-yl)-3,5-difluorophenyl]-5-(hydroxymethyl)-1,3-oxazolidin-2-one] |  |  |  | 3.1 µM (≈ 1.14 µg/mL) | > 100 µM | 3.1 µM (≈ 1.14 µg/mL)
Cc1nnc2cc(-c3ccc(N4C[C@H](CO)OC4=O)cc3F)ccn12 [Example 19, (5R)-3-[3-fluoro-4-(3-methyl[1,2,4]triazolo[4,3-a]pyridin-7-yl)phenyl]-5-(hydroxymethyl)-1,3-oxazolidin-2-one] |  |  |  | 1.2 µM (≈ 0.411 µg/mL) | 18 µM | 1.2 µM (≈ 0.411 µg/mL)
CN1CC(S(=O)(=O)c2ccc(-c3ccc(N4C[C@H](CO)OC4=O)cc3F)cc2)C1 [Example 20, (5R)-3-[2-fluoro-4′-(1-methylazetidine-3-sulfonyl)[1,1′-biphenyl]-4-yl]-5-(hydroxymethyl)-1,3-oxazolidin-2-one] |  |  |  | 0.39 µM (≈ 0.164 µg/mL) | 7.4 µM | 0.39 µM (≈ 0.164 µg/mL)
O=C1O[C@@H](CO)CN1c1cc(F)c(N2CCN(C(=O)C3CC3)C3CC32)c(F)c1 (stereo partly drawn) [Example 21, (5R)-3-{4-[5-(cyclopropanecarbonyl)-2,5-diazabicyclo[4.1.0]heptan-2-yl]-3,5-difluorophenyl}-5-(hydroxymethyl)-1,3-oxazolidin-2-one] |  |  |  | 6.3 µM (≈ 2.48 µg/mL) | > 13 µM | 3.1 µM (≈ 1.22 µg/mL)
O=C1O[C@@H](CO)CN1c1cc(F)c(N2CCS(=O)(=O)CC2)c(F)c1 [Example 22, 4-{2,6-difluoro-4-[(5R)-5-(hydroxymethyl)-2-oxo-1,3-oxazolidin-3-yl]phenyl}-1λ^6-thiomorpholine-1,1-dione] |  |  |  | 3.9 µM (≈ 1.41 µg/mL) | > 100 µM | 6.3 µM (≈ 2.28 µg/mL)
CN1CC(C)(S(=O)(=O)c2ccc(-c3ccc(N4C[C@H](CO)OC4=O)cc3)cc2)C1 [Example 23, (5R)-3-[4'-(1,3-dimethylazetidine-3-sulfonyl)[1,1'-biphenyl]-4-yl]-5-(hydroxymethyl)-1,3-oxazolidin-2-one] |  |  |  | 1.6 µM (≈ 0.666 µg/mL) | > 100 µM | 3.1 µM (≈ 1.29 µg/mL)
O=C1O[C@@H](CO)CN1c1ccc(C2(F)CCS(=O)(=O)CC2)c(F)c1 [Example 24, 4-fluoro-4-[2-fluoro-4-[(5R)-5-(hydroxymethyl)-2-oxo-1,3-oxazolidin-3-yl]phenyl}-1λ^6-thiane-1,1-dione] |  |  |  | 6.3 µM (≈ 2.28 µg/mL) | > 50 µM | 6.3 µM (≈ 2.28 µg/mL)
O=C1O[C@@H](CO)CN1c1cc(F)c(C2(F)CCS(=O)(=O)CC2)c(F)c1F [Example 25, 4-fluoro-4-{2,3,6-trifluoro-4-[(5R)-5-(hydroxymethyl)-2-oxo-1,3-oxazolidin-3-yl]phenyl}-1λ^6-thiane-1,1-dione] |  |  |  | 6.3 µM (≈ 2.5 µg/mL) | > 100 µM | 6.3 µM (≈ 2.5 µg/mL)
Cn1cc(-c2ccc(N3C[C@H](CO)OC3=O)cc2F)ccc1=O [Example 26, 5-{2-fluoro-4-[(5R)-5-(hydroxymethyl)-2-oxo-1,3-oxazolidin-3-yl]phenyl}-1-methylpyridin-2(1H)-one] |  |  |  | 6.3 µM (≈ 2.01 µg/mL) | 28 µM | 6.3 µM (≈ 2.01 µg/mL)
CN=S1(=O)CCN(c2c(F)cc(N3C[C@H](CO)OC3=O)cc2F)CC1 [Example 27, 4-{2,6-difluoro-4-[(5R)-5-(hydroxymethyl)-2-oxo-1,3-oxazolidin-3-yl]phenyl}-1-(methylimino)-1λ^6-thiomorpholin-1-one] |  |  |  | 6.3 µM (≈ 2.37 µg/mL) | > 100 µM | 6.3 µM (≈ 2.37 µg/mL)
CS(=O)(=O)c1ccc(-c2ccc(N3C[C@H](CO)OC3=O)cc2)cc1 [Example 28, (5R)-5-(hydroxymethyl)-3-[4′-(methanesulfonyl)[1,1′-biphenyl]-4-yl]-1,3-oxazolidin-2-one] |  |  |  | 1.6 µM (≈ 0.556 µg/mL) | 32 µM | 1.6 µM (≈ 0.556 µg/mL)
O=C1O[C@@H](CO)CN1c1ccc(-c2ccc(S(=O)(=O)C3CCC3)cc2)c(F)c1 [Example 29, (5R)-3-[4′-(cyclobutanesulfonyl)-2-fluoro[1,1′-biphenyl]-4-yl]-5-(hydroxymethyl)-1,3-oxazolidin-2-one] |  |  |  | 3.1 µM (≈ 1.26 µg/mL) | > 100 µM | 3.1 µM (≈ 1.26 µg/mL)
